Laboratory results reported in patent US6737383B1, “Herbicidal oxadiazolidines” (priority 1999, dated 2004).

Assays:
cocklebur = assay: Test B pre/postemergence cocklebur; assay type: in vivo, Xanthium strumarium
Summary of the method: (§1)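 Test chemicals in a non-phytotoxic solvent mixture with surfactant were sprayed preemergence onto planted seeds and postemergence onto plants 2 to 18 cm tall (1- to 4-leaf stage). After twelve to sixteen days in a greenhouse, injury was visually rated against untreated controls from 0 (no effect) to 10 (complete control).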

wild oat = assay: Test B pre/postemergence wild oat; assay type: in vivo, Avena fatua
Summary of the method: as §1

morningglory = assay: Test B pre/postemergence morningglory; assay type: in vivo, Ipomoea hederacea
Summary of the method: as §1

giant foxtail = assay: Test B pre/postemergence giant foxtail; assay type: in vivo, Setaria faberii
Summary of the method: as §1

smallflower flatsedge = assay: Test B flood test smallflower flatsedge; assay type: in vivo, Cyperus difformis
Summary of the method: (§2)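 Read-out is a visual response score from 0 (no effect) to 10 (complete control), assigned by comparison with untreated controls. Treatment was applied at the 2-leaf stage, and plants stayed in the greenhouse for twelve to sixteen days before scoring.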

sugar beet = assay: Test B pre/postemergence sugar beet; assay type: in vivo, Beta vulgaris
Summary of the method: as §1

bamyardgrass = assay: Test B flood test barnyardgrass; assay type: in vivo, Echinochloa crus-galli
Summary of the method: as §2

soybean = assay: Test B pre/postemergence soybean; assay type: in vivo, Glycine max
Summary of the method: as §1

rape = assay: Test B pre/postemergence rape; assay type: in vivo, Brassica napus
Summary of the method: as §1

rice = assay: Test B flood test rice; assay type: in vivo, Oryza sativa
Summary of the method: as §2

velvetleaf = assay: Test B pre/postemergence velvetleaf; assay type: in vivo, Abutilon theophrasti
Summary of the method: as §1

duck salad = assay: Test B flood test duck salad; assay type: in vivo, Heteranthera limosa
Summary of the method: as §2

pigweed = assay: Test B pre/postemergence pigweed; assay type: in vivo, Amaranthus retroflexus
Summary of the method: as §1

wheat = assay: Test B pre/postemergence wheat; assay type: in vivo, Triticum aestivum
Summary of the method: as §1

blackgrass = assay: Test B pre/postemergence blackgrass; assay type: in vivo, Alopecurus myosuroides
Summary of the method: as §1

purple nutsedge = assay: Test B pre/postemergence purple nutsedge; assay type: in vivo, Cyperus rotundus
Summary of the method: as §1

[1] = Preemergence, Rate 250 g/ha, scale of 0 to 10 where 0 is no effect and 10 is complete control
[2] = Preemergence, Rate 500 g/ha, scale of 0 to 10 where 0 is no effect and 10 is complete control
[3] = Rate 62 g/ha, Postemergence, scale 0 to 10 (0 no effect, 10 complete control)
[4] = Rate 125 g/ha, Postemergence, scale of 0 to 10 where 0 is no effect and 10 is complete control
[5] = Rate 250 g/ha, Postemergence, scale of 0 to 10 where 0 is no effect and 10 is complete control
[6] = Rate 500 g/ha, Postemergence, scale 0 to 10, 0 no effect, 10 complete control
[7] = Preemergence, Rate 62 g/ha, scale of 0 to 10 where 0 is no effect and 10 is complete control
[8] = Rate 125 g/ha, Preemergence, scale of 0 to 10 where 0 is no effect and 10 is complete control
[9] = Rate 62 g/ha, headed Pre-emergence (flood test species), scale 0 to 10 (0 no effect, 10 complete control)
[10] = Rate 125 g/ha, Pre-emergence, flood test species, scale 0 to 10 where 0 is no effect and 10 is complete control
[11] = Rate 250 g/ha, Pre-emergence, flood-test species, scale 0 to 10, 0 is no effect, 10 is complete control
[12] = Rate 500 g/ha, Pre-emergence, flood test species, scale 0 to 10 (0 no effect, 10 complete control)

Structure (SMILES): CC1Cc2cccc(-n3c(=O)on(C(=O)N(c4ccc(F)cc4)C(C)C)c3=O)c2O1 (stereo not drawn) [Compound 281]
- Cocklebur plant response rating (cocklebur; [1]): 0
- Plant response rating, Cocklebur (cocklebur; [2]): 0
- Cocklebur plant response rating (cocklebur; [3]): 0
- Cocklebur plant response rating (cocklebur; [4]): 0
- Plant response rating, Cocklebur (cocklebur; [5]): 0
- Cocklebur plant response rating (cocklebur; [6]): 0
- Wild oats plant response rating (wild oat; [7]): 0
- Wild oats plant response rating (wild oat; [1]): 2
- Plant response rating, Wild oats (wild oat; [2]): 3
- Wild oats plant response rating (wild oat; [3]): 0
- Wild oats plant response rating (wild oat; [4]): 0
- Plant response rating, Wild oats (wild oat; [5]): 0
- Wild oats plant response rating (wild oat; [6]): 0
- Morningglory plant response rating (morningglory; [7]): 0
- Morningglory plant response rating (morningglory; [1]): 0
- Plant response rating, Morningglory (morningglory; [2]): 0
- Morningglory plant response rating (morningglory; [3]): 2
- Morningglory plant response rating (morningglory; [4]): 2
- Morningglory plant response rating (morningglory; [8]): 0
- Plant response rating, Morningglory (morningglory; [5]): 3
- Morningglory plant response rating (morningglory; [6]): 5
- Giant foxtail plant response rating (giant foxtail; [7]): 7
- Giant foxtail plant response rating (giant foxtail; [1]): 10
- Plant response rating, Giant foxtail (giant foxtail; [2]): 10
- Giant foxtail plant response rating (giant foxtail; [3]): 0
- Giant foxtail plant response rating (giant foxtail; [4]): 0
- Giant foxtail plant response rating (giant foxtail; [8]): 9
- Plant response rating, Giant foxtail (giant foxtail; [5]): 0
- Giant foxtail plant response rating (giant foxtail; [6]): 0
- S. Flatsedge plant response rating (smallflower flatsedge; [9]): 0
- S. Flatsedge plant response rating (smallflower flatsedge; [10]): 0
- S. Flatsedge plant response rating (smallflower flatsedge; [11]): 0
- S. Flatsedge plant response rating (smallflower flatsedge; [12]): 0
- Sugarbeets plant response rating (sugar beet; [7]): 0
- Sugarbeets plant response rating (sugar beet; [1]): 0
- Plant response rating, Sugarbeets (sugar beet; [2]): 0
- Sugarbeets plant response rating (sugar beet; [3]): 0
- Sugarbeets plant response rating (sugar beet; [4]): 0
- Sugarbeets plant response rating (sugar beet; [8]): 0
- Plant response rating, Sugarbeets (sugar beet; [5]): 0
- Sugarbeets plant response rating (sugar beet; [6]): 4
- Barnyardgrass plant response rating (bamyardgrass; [9]): 0
- Barnyardgrass plant response rating (bamyardgrass; [10]): 0
- Barnyardgrass plant response rating (bamyardgrass; [11]): 4
- Barnyardgrass plant response rating (bamyardgrass; [12]): 2
- Soybean plant response rating (soybean; [7]): 0
- Soybean plant response rating (soybean; [1]): 0
- Plant response rating, Soybean (soybean; [2]): 0
- Soybean plant response rating (soybean; [3]): 2
- Soybean plant response rating (soybean; [8]): 0
- Plant response rating, Soybean (soybean; [5]): 3
- Soybean plant response rating (soybean; [6]): 3
- Rape plant response rating (rape; [7]): 0
- Rape plant response rating (rape; [1]): 0
- Plant response rating, Rape (rape; [2]): 0
- Rape plant response rating (rape; [3]): 0
- Rape plant response rating (rape; [4]): 0
- Rape plant response rating (rape; [8]): 0
- Plant response rating, Rape (rape; [5]): 0
- Rape plant response rating (rape; [6]): 0
- Rice plant response rating (rice; [9]): 0
- Rice plant response rating (rice; [10]): 0
- Rice plant response rating (rice; [11]): 0
- Rice plant response rating (rice; [12]): 0
- Velvetleaf plant response rating (velvetleaf; [7]): 0
- Velvetleaf plant response rating (velvetleaf; [1]): 0
- Plant response rating, Velvetleaf (velvetleaf; [2]): 0
- Velvetleaf plant response rating (velvetleaf; [3]): 0
- Velvetleaf plant response rating (velvetleaf; [4]): 1
- Velvetleaf plant response rating (velvetleaf; [8]): 0
- Plant response rating, Velvetleaf (velvetleaf; [5]): 1
- Velvetleaf plant response rating (velvetleaf; [6]): 1
- Ducksalad plant response rating (duck salad; [9]): 0
- Ducksalad plant response rating (duck salad; [10]): 0
- Ducksalad plant response rating (duck salad; [11]): 0
- Ducksalad plant response rating (duck salad; [12]): 0
- Redroot pigweed plant response rating (pigweed; [7]): 0
- Redroot pigweed plant response rating (pigweed; [1]): 0
- Plant response rating, Redroot pigweed (pigweed; [2]): 0
- Redroot pigweed plant response rating (pigweed; [3]): 0
- Redroot pigweed plant response rating (pigweed; [4]): 2
- Redroot pigweed plant response rating (pigweed; [8]): 0
- Plant response rating, Redroot pigweed (pigweed; [5]): 5
- Redroot pigweed plant response rating (pigweed; [6]): 6
- Wheat plant response rating (wheat; [7]): 0
- Wheat plant response rating (wheat; [1]): 0
- Plant response rating, Wheat (wheat; [2]): 0
- Wheat plant response rating (wheat; [3]): 0
- Wheat plant response rating (wheat; [4]): 0
- Wheat plant response rating (wheat; [8]): 0
- Plant response rating, Wheat (wheat; [5]): 0
- Wheat plant response rating (wheat; [6]): 0
- Blackgrass plant response rating (blackgrass; [7]): 0
- Blackgrass plant response rating (blackgrass; [1]): 2
- Plant response rating, Blackgrass (blackgrass; [2]): 4
- Blackgrass plant response rating (blackgrass; [3]): 0
- Blackgrass plant response rating (blackgrass; [4]): 0
- Blackgrass plant response rating (blackgrass; [8]): 1
- Plant response rating, Blackgrass (blackgrass; [5]): 0
- Blackgrass plant response rating (blackgrass; [6]): 2
- Nutsedge plant response rating (purple nutsedge; [7]): 0
- Nutsedge plant response rating (purple nutsedge; [1]): 0
- Plant response rating, Nutsedge (purple nutsedge; [2]): 0
- Nutsedge plant response rating (purple nutsedge; [3]): 0
- Nutsedge plant response rating (purple nutsedge; [4]): 0
- Nutsedge plant response rating (purple nutsedge; [8]): 0
- Plant response rating, Nutsedge (purple nutsedge; [5]): 0
- Nutsedge plant response rating (purple nutsedge; [6]): 0
